Source: patent US20020115661A1, “Method for treating chronic obstructive pulmonary disease” (priority 2000, published 2002)

Key:
clinical = details: human, plasma, oral, 2 mg
human ETA receptors = biological target: T1, human ETA receptors (Homo sapiens, UniProt P25101); experiment: [125I]ET-1 binding to recombinant human ETA receptors (Ltk- cell membranes); details: for IC50: Table 1 comparison with known endothelin antagonists, read-out: Receptor Inhibition, Human ETA; for ETB/ETA selectivity ratio: human ETB / human ETA receptor inhibition
T1 construct: expressed in transfected cells; host or cells: Ltk- cells (mouse fibroblast, thymidine kinase deficient)
T1 sequence (P25101 21-427): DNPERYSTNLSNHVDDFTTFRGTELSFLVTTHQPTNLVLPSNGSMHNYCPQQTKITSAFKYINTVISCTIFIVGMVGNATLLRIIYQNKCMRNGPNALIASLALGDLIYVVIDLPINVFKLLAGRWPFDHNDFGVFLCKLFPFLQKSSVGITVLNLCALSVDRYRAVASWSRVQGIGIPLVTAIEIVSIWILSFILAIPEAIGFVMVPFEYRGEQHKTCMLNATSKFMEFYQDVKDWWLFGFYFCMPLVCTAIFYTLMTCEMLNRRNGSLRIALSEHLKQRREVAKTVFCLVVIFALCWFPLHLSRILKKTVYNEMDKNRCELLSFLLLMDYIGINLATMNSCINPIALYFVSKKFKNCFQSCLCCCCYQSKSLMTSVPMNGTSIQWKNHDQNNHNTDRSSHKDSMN

human ETB receptors = biological target: T2, human ETB receptors (Homo sapiens, UniProt P24530); experiment: [125I]ET-3 binding to recombinant human ETB receptors (CHO cell membranes); details: Table 1 comparison with known endothelin antagonists; read-out: Receptor Inhibition, Human ETB
T2 construct: expressed in transfected cells; host or cells: CHO cells
T2 sequence (P24530 27-442): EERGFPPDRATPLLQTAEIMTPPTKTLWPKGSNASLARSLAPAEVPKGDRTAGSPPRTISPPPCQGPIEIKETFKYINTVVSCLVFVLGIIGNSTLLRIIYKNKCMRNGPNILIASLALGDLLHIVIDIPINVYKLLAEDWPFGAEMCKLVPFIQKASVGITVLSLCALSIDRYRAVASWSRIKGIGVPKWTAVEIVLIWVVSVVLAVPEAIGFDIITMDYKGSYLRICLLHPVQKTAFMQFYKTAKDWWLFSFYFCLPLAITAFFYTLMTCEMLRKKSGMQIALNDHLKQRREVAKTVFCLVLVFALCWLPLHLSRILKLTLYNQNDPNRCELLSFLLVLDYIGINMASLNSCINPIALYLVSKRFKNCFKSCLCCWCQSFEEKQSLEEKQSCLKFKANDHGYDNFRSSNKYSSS

SMILES	AUC(0-t) (clinical)	Cmax (clinical)	IC50 (human ETA receptors)	ETB/ETA selectivity ratio (human ETA receptors)	IC50 (human ETB receptors)
Cc1ncc2n1-c1ccc(Cl)cc1C(c1ccccc1F)=NC2 [midazolam]	15.2 ng·h/mL	7.65 ng/mL	–	–	–
COc1cc(OC)nc(O[C@H](C(=O)O)C(OC)(c2ccccc2)c2ccccc2)n1 [Darusentan]	–	–	1.4 nM	131	184 nM
CCCOc1ccc2c(c1)[C@@H](c1ccc(OC)cc1OCCO)[C@H](C(=O)O)[C@H]2c1ccc2c(c1)OCO2 [Enrasentan]	–	–	0.1 nM	1110	111 nM
